We go through 2 compounds from PMC5843628, “Phosphorylation of conserved phosphoinositide binding pocket regulates sorting nexin membrane targeting” (Nature Communications, 2018).

In the test the target is full length human SNX3 (sorting nexin 3) (Homo sapiens, UniProt O60493). The experiment in a line: NMR chemical shift perturbation titration, […]-labelled protein. Type of test: binding.
full length human SNX3 (sorting nexin 3), sequence (O60493 whole entry): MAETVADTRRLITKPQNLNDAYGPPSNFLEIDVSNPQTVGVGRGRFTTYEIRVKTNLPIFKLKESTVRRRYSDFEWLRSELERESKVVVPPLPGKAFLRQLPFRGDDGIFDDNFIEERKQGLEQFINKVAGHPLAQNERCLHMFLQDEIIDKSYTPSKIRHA

In the case of `O=P(O)(O)O[C@@H]1[C@H](O)[C@H](OP(=O)(O)O)[C@@H](O)[C@H](O)[C@H]1O` [Ins(1,3)P2], the equilibrium dissociation constant (Kd) amounted to 170 ± 34.1 µM.

On to `CCCC(=O)OC[C@H](COP(=O)(O)O[C@@H]1[C@H](O)[C@H](OP(=O)(O)O)[C@@H](O)[C@H](O)[C@H]1O)OC(=O)CCC` [c4-PI3P], for which the Kd was determined as 159 ± 36.1 µM.

In general, Kd refers to the equilibrium constant for the complex coming apart.
